Measurements as given in ChEMBL document CHEMBL1201862, “PubChem BioAssay data set” (2004).
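Test compounds were applied to cells in 96-well plates for 48 hours at 5 doses. GI50 marks 50% less growth.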 The source made the active and inactive calls. Cut-off read from the data, not from the text of the source: active = GI50 up to about 1.1 µM and inactive = higher.

Legend:
Assay in all cases: NCI-60 cell line screen, 48 h
IGROV-1 = test system: IGROV-1
TK-10 = test system: TK-10
MDA-MB-435 = test system: MDA-MB-435
OVCAR-3 = test system: OVCAR-3
MDA-N = test system: MDA-N
UACC-257 = test system: UACC-257
SN12C = test system: SN12C
HCT-116 = test system: HCT-116
NCI-H522 = test system: NCI-H522
NCI-H23 = test system: NCI-H23
SF-295 = test system: SF-295
786-0 = test system: 786-0
RXF 393 = test system: RXF 393
Hs-578T = test system: Hs-578T
T47D = test system: T47D
Malme-3M = test system: Malme-3M

Measured: GI50

c1ccc(OCc2nnc(CCCCCCCCc3nnc(COc4ccccc4)o3)o2)cc1
inactive: IGROV-1 > 100 µM | TK-10 > 100 µM | MDA-MB-435 > 100 µM | OVCAR-3 27.8 µM | MDA-N > 100 µM | UACC-257 > 100 µM | SN12C > 100 µM | HCT-116 63.8 µM | NCI-H522 50.6 µM | NCI-H23 65.9 µM | SF-295 > 100 µM | 786-0 47.5 µM | RXF 393 13.2 µM

CN1C(=O)CC(=O)N1/C(=C/c1ccccc1)c1ccccc1
inactive: IGROV-1 18.2 µM | TK-10 33 µM | MDA-MB-435 66.8 µM | OVCAR-3 39.3 µM | MDA-N > 100 µM | UACC-257 > 100 µM | SN12C > 100 µM | HCT-116 > 100 µM | NCI-H23 > 100 µM | Hs-578T 28.2 µM | SF-295 67 µM | T47D > 100 µM | RXF 393 14 µM

Cc1ccc2c3c1[C@@H]1O[C@@H]1c1cccc(c1-3)[C@@H]1O[C@H]21
inactive: TK-10 18.2 µM | MDA-MB-435 14.1 µM | MDA-N 14.4 µM | UACC-257 15.9 µM | SN12C 11.1 µM | HCT-116 5.24 µM | NCI-H522 12.2 µM | Malme-3M 15.3 µM | NCI-H23 15.1 µM | Hs-578T 21.3 µM | SF-295 15.8 µM | T47D 3.08 µM

Cc1ccc(C(=O)Cc2nc3c([nH]c2=O)c(C)nn3-c2ccccc2)c(C)c1
inactive: IGROV-1 > 10 µM | TK-10 > 10 µM | MDA-MB-435 > 10 µM | OVCAR-3 3.25 µM | MDA-N > 10 µM | UACC-257 > 10 µM | SN12C > 10 µM | HCT-116 4.69 µM | NCI-H522 > 10 µM | Malme-3M > 10 µM | NCI-H23 > 10 µM | Hs-578T > 10 µM | SF-295 > 10 µM | 786-0 3.55 µM | T47D 5.45 µM

COc1ccc(/C=C2\C[C@H]3[C@@H]4CCC5=C/C(=N/O)CC[C@]5(C)[C@H]4CC[C@]3(C)\C2=N\O)cc1OC
inactive: IGROV-1 47.4 µM | MDA-MB-435 18.8 µM | OVCAR-3 9.1 µM | MDA-N 11.6 µM | UACC-257 6.07 µM | SN12C 12.7 µM | HCT-116 6.56 µM | NCI-H522 23.1 µM | Malme-3M 43.5 µM | NCI-H23 43.4 µM | Hs-578T > 100 µM | SF-295 7 µM | 786-0 17.8 µM | T47D 7.66 µM | RXF 393 28.4 µM

CCOC(=O)C1=NN(c2ccc(Cl)cc2)C2=CC(C)=NN(C)C(=S)N21
inactive: IGROV-1 44.8 µM | TK-10 22 µM | MDA-MB-435 > 100 µM | OVCAR-3 56.5 µM | MDA-N > 100 µM | UACC-257 > 100 µM | SN12C 51.5 µM | HCT-116 36.6 µM | NCI-H522 20.7 µM | NCI-H23 42.1 µM | Hs-578T 27.5 µM | SF-295 42.2 µM | T47D 23.9 µM | RXF 393 25.4 µM

CC(=C(c1ccccc1)c1ccccc1)N1C(=O)CC(=O)N1C
inactive: IGROV-1 18.3 µM | TK-10 43.3 µM | MDA-MB-435 41.1 µM | OVCAR-3 32.4 µM | MDA-N 48.3 µM | UACC-257 > 100 µM | SN12C > 100 µM | HCT-116 74.6 µM | NCI-H23 > 100 µM | Hs-578T 20.3 µM | SF-295 52.7 µM | T47D 78.2 µM | RXF 393 15.4 µM

Cc1ccnc2nc(N)ccc12
inactive: IGROV-1 > 100 µM | TK-10 > 100 µM | MDA-MB-435 > 100 µM | MDA-N > 100 µM | UACC-257 > 100 µM | SN12C > 100 µM | HCT-116 > 100 µM | NCI-H522 > 100 µM | Malme-3M > 100 µM | NCI-H23 > 100 µM | Hs-578T > 100 µM | SF-295 > 100 µM | 786-0 > 100 µM | T47D > 100 µM | RXF 393 > 100 µM

C=CCc1cccc2cc(C(=O)Nc3ccc(C)cc3)c(=N)oc12
inactive: IGROV-1 > 100 µM | MDA-MB-435 > 100 µM | OVCAR-3 > 100 µM | MDA-N > 100 µM | UACC-257 > 100 µM | SN12C > 100 µM | HCT-116 > 100 µM | NCI-H522 > 100 µM | Malme-3M > 100 µM | NCI-H23 > 100 µM | Hs-578T > 100 µM | 786-0 > 100 µM | T47D > 100 µM | RXF 393 > 100 µM

COc1ccc2c(c1)c1c(n2CCN(C)C)-c2ccccc2CC1
inactive: IGROV-1 11.9 µM | TK-10 15.9 µM | MDA-MB-435 16.5 µM | OVCAR-3 16.6 µM | MDA-N 16 µM | UACC-257 16.3 µM | SN12C 14.1 µM | HCT-116 15.2 µM | NCI-H522 18.5 µM | Malme-3M 20.3 µM | NCI-H23 18 µM | Hs-578T 17.6 µM | SF-295 16.9 µM | 786-0 16.1 µM | T47D 14.5 µM

CCOC(=O)C1(C(F)(F)F)N=C(CC)OC(N2CCOCC2)=N1 (stereo not given)
inactive: IGROV-1 > 100 µM | TK-10 > 100 µM | MDA-MB-435 > 100 µM | OVCAR-3 > 100 µM | MDA-N > 100 µM | UACC-257 > 100 µM | SN12C > 100 µM | HCT-116 > 100 µM | NCI-H522 > 100 µM | NCI-H23 > 100 µM | Hs-578T > 100 µM | SF-295 > 100 µM | T47D 46.6 µM | RXF 393 > 100 µM

CN(C1=NCCO1)c1cccc2ccccc12
inactive: IGROV-1 > 10 µM | TK-10 > 10 µM | MDA-MB-435 > 10 µM | OVCAR-3 > 10 µM | MDA-N > 10 µM | SN12C > 10 µM | HCT-116 > 10 µM | NCI-H522 > 10 µM | Malme-3M > 10 µM | NCI-H23 > 10 µM | Hs-578T > 10 µM | SF-295 > 10 µM | T47D > 10 µM | RXF 393 > 10 µM

CC12CCC(=O)[C@@]1(C)CCCC2O (stereo not given in full)
inactive: IGROV-1 > 100 µM | TK-10 > 100 µM | MDA-N > 100 µM | UACC-257 > 100 µM | SN12C > 100 µM | HCT-116 > 100 µM | NCI-H522 > 100 µM | Malme-3M > 100 µM | NCI-H23 > 100 µM | Hs-578T > 100 µM | SF-295 > 100 µM | 786-0 > 100 µM | T47D > 100 µM

CC=C/C=C/[C@@H]1O[C@](O)([C@H](CC)C(=O)NC/C=C/C=C(\C)[C@@H](OC)[C@@H](C)[C@@H]2O[C@H](/C=C/C=C/C=C(\C)C(=O)c3c(O)cc[nH]c3=O)[C@H](O)[C@@H]2O)[C@H](O)[C@H](O)C1(C)C
inactive: IGROV-1 > 100 µM | TK-10 > 100 µM | MDA-MB-435 > 100 µM | OVCAR-3 > 100 µM | UACC-257 > 100 µM | NCI-H522 > 100 µM | Malme-3M 94.2 µM | NCI-H23 > 100 µM | Hs-578T 43.4 µM | SF-295 69.7 µM
